We go through 19 compounds from PubChem BioAssay (NCI).

Test systems include ACHN renal; DU-145 prostate; MCF7 breast; HL-60(TB) leukemia; T-47D breast; MDA-MB-435; PC-3 prostate.
Common to all, as to experiment: inhibition of tumour cell growth, NCI panel, 48 h

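Following 48 hours of exposure in 96-well plates, responses at five concentrations were used to interpolate endpoints linearly. Abbreviation: GI50, concentration required for 50% inhibition of growth. The concentration for full growth arrest is given as TGI.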 Bounds are passed on as bounds.

On to `O=[N+]([O-])c1ccccc1N/N=C\c1c[nH]c2ccccc12`, for which the GI50 in the test with ACHN renal was 13900 nM; in the test on DU-145 prostate, 27.6 µM; in the test with MCF7 breast it was 850 nM; in the test with HL-60(TB) leukemia, 5560 nM; in the test on T-47D breast it was 3.52 µM; in the test with MDA-MB-435, more than 100 µM. For the same compound, the GI50 in the test on PC-3 prostate was 4.25 µM. The TGI in the test with ACHN renal was more than 67.3 µM; with DU-145 prostate, more than 100 µM; in the test on MCF7 breast, more than 100 µM; in the test on HL-60(TB) leukemia it was more than 100 µM; with T-47D breast it was more than 100 µM; with MDA-MB-435, more than 100 µM. This compound also registered a TGI with PC-3 prostate of more than 100 µM.
Consider `Cc1ccc2ncnc(N(CC(C)C)CC(C)C)c2c1`, for which the GI50 in the test with ACHN renal is 15300 nM; in the test with DU-145 prostate, 15.5 µM; with MCF7 breast, 21500 nM; in the test on T-47D breast it was 20.4 µM; with MDA-MB-435 it was 18.5 µM; in the test with PC-3 prostate, 11 µM. In addition, the TGI with ACHN renal is 31.5 µM; with DU-145 prostate, 32.4 µM; in the test on MCF7 breast it was more than 100 µM; in the test on T-47D breast, 89.3 µM; with MDA-MB-435, 34.7 µM; in the test with PC-3 prostate it was 27.8 µM.
As to `NC(N)=N/N=C/c1c(-c2cc(Cl)sc2Cl)nc2sccn12`, the GI50 is 703 nM in the test on ACHN renal, 843 nM in the test on MCF7 breast, 4.03 µM with MDA-MB-435 and 1.55 µM in the test on PC-3 prostate. The TGI with ACHN renal was found to be 1.41 µM; in the test on MCF7 breast it was 2.05 µM; in the test with MDA-MB-435, 15.1 µM; with PC-3 prostate it was 6.15 µM.
Take `Cn1cc(C2=C(c3cn(C)c4c([N+](=O)[O-])cccc34)C(=O)NC2=O)c2ccccc21`: the GI50 was more than 25000 nM in the test on ACHN renal; more than 25 µM in the test with DU-145 prostate; more than 25000 nM with MCF7 breast; more than 25000 nM in the test on HL-60(TB) leukemia; more than 25 µM in the test on T-47D breast; more than 25 µM with MDA-MB-435. Besides, the GI50 in the test with PC-3 prostate was more than 25 µM. Further, the TGI in the test on ACHN renal, in the test with DU-145 prostate, with MCF7 breast, in the test with HL-60(TB) leukemia, with T-47D breast and with MDA-MB-435 was more than 25 µM in each case. The TGI in the test with PC-3 prostate was more than 25 µM.
As for `CCN(CC)CCOc1ccccc1/C=C/c1noc2ccccc12`, the TGI in the test on ACHN renal amounted to 25.9 µM; in the test with DU-145 prostate, 29.1 µM; in the test on MCF7 breast it was 27.9 µM; with HL-60(TB) leukemia, 40.1 µM; in the test with T-47D breast, 32.4 µM; in the test with PC-3 prostate it was 19.8 µM.
On to `Nc1nc(OCc2cc(Br)cs2)c2[nH]cnc2n1`, for which the GI50 was 13700 nM with ACHN renal; 33 µM with DU-145 prostate; 25700 nM in the test on MCF7 breast; 27900 nM in the test with HL-60(TB) leukemia; 17.5 µM in the test on T-47D breast; 29.9 µM in the test on MDA-MB-435. In the test with PC-3 prostate, the GI50 is 21.8 µM. Further, the TGI was 52 µM in the test with ACHN renal; more than 100 µM in the test on DU-145 prostate; more than 100 µM in the test with MCF7 breast; more than 100 µM in the test with HL-60(TB) leukemia; 87.5 µM in the test on T-47D breast; more than 100 µM in the test with MDA-MB-435. Besides, in the test on PC-3 prostate, the TGI is more than 100 µM.
Consider `O=[N+]([O-])c1ccc(Sc2ncnc3nc[nH]c23)c2nonc12`, for which the GI50 in the test on ACHN renal is 4040 nM; with DU-145 prostate, 5.16 µM; with MCF7 breast, 1720 nM; with HL-60(TB) leukemia, 2800 nM; in the test with T-47D breast, 2.09 µM; in the test with MDA-MB-435 it was 3.04 µM. Also, the GI50 in the test on PC-3 prostate is 13.1 µM. The TGI was 16.1 µM in the test on ACHN renal; more than 100 µM in the test on DU-145 prostate; 12.2 µM with MCF7 breast; 6.03 µM in the test with HL-60(TB) leukemia; more than 100 µM in the test with T-47D breast; 17.1 µM in the test on MDA-MB-435. The compound also gave a TGI in the test on PC-3 prostate of 30 µM.
`O=C(/C(=C\c1ccc([N+](=O)[O-])cc1)S(=O)Cc1ccc(F)cc1)c1ccc(F)cc1` (stereo unspecified): the GI50 was 2330 nM in the test on ACHN renal; 1.66 µM in the test with DU-145 prostate; 2090 nM in the test with HL-60(TB) leukemia; 2.08 µM in the test on T-47D breast; 1.84 µM with MDA-MB-435; 1.69 µM with PC-3 prostate. For the same compound, the TGI in the test on ACHN renal was determined as 6.51 µM; in the test on DU-145 prostate, 3.06 µM; with HL-60(TB) leukemia, 5.38 µM; with T-47D breast it was 6.57 µM; with MDA-MB-435 it was 4.09 µM; in the test on PC-3 prostate, 3.47 µM.
Take `O=C1c2ccccc2S(=O)(=O)N1CSC(=S)N1CCCCC1`: the GI50 in the test on ACHN renal was more than 100000 nM; with DU-145 prostate, more than 100 µM; in the test with HL-60(TB) leukemia it was 32.9 nM; in the test on T-47D breast, more than 100 µM; in the test on MDA-MB-435, more than 100 µM. In addition, the TGI in the test with ACHN renal, in the test on DU-145 prostate, in the test with MCF7 breast, with HL-60(TB) leukemia, in the test with T-47D breast and with MDA-MB-435 was more than 100 µM throughout.
Take `O=C(O)c1cc(/C=C/c2cc(O)ccc2O)ccc1O`: the TGI in the test on ACHN renal, in the test on DU-145 prostate, with MCF7 breast, with HL-60(TB) leukemia, in the test with MDA-MB-435 and in the test with PC-3 prostate was more than 10 µM in each case.
With `Cc1ccc(S(=O)(=O)N2CCSCCN(S(=O)(=O)c3ccc(C)cc3)CCN(S(=O)(=O)c3ccc(C)cc3)CC2)cc1`, the TGI in the test on DU-145 prostate, in the test with MCF7 breast, in the test on HL-60(TB) leukemia, with T-47D breast and with MDA-MB-435 was more than 100 µM throughout.
In the case of `COC(=O)C(=O)C(C(=O)C(=O)Nc1nc2ccc(C)cc2s1)c1nc2ccc([N+](=O)[O-])cc2[nH]c1=O` (stereo unspecified), the TGI in the test on ACHN renal, in the test on MCF7 breast, with HL-60(TB) leukemia, in the test on T-47D breast, with MDA-MB-435 and in the test with PC-3 prostate was more than 100 µM each time.
With `COc1ccc2c(c1)[n+](=O)c(C(=O)c1ccco1)c(C(F)(F)F)n2[O-]`, the GI50 in the test on ACHN renal was 514 nM; in the test with DU-145 prostate, 2.12 µM; in the test with MCF7 breast, 3820 nM; with HL-60(TB) leukemia, 3290 nM; with MDA-MB-435, 3.08 µM; in the test with PC-3 prostate, 4.64 µM. Moreover, the TGI in the test on ACHN renal is 2.53 µM; with DU-145 prostate, 14.5 µM; in the test with MCF7 breast, more than 100 µM; with HL-60(TB) leukemia, more than 100 µM; with MDA-MB-435 it was 14.5 µM; with PC-3 prostate, more than 100 µM.
In the case of `CCN1C(=O)N(CC)C2Nn3c(s/c(=C\c4ccccc4Br)c3=O)=NC21` (stereo unspecified), the GI50 in the test with ACHN renal is 1330 nM; in the test on MCF7 breast it was 1780 nM; in the test with HL-60(TB) leukemia it was 1280 nM; in the test with T-47D breast, 13.2 µM; with PC-3 prostate, 1.86 µM. The TGI in the test with ACHN renal was more than 100 µM; in the test on MCF7 breast, more than 100 µM; with HL-60(TB) leukemia, 3.19 µM; with T-47D breast it was more than 100 µM; in the test with PC-3 prostate, more than 100 µM.
Turning to `CC1COc2c(N3CCN(C)CC3)c(F)cc3c(=O)c(C(=O)O)cn1c23` (stereo unspecified), the GI50 is more than 100000 nM with ACHN renal; more than 100 µM in the test on DU-145 prostate; more than 100000 nM in the test on MCF7 breast; more than 100 µM with MDA-MB-435; more than 100 µM in the test on PC-3 prostate. Also, the TGI in the test on ACHN renal, in the test on DU-145 prostate, with MCF7 breast, in the test on MDA-MB-435 and in the test with PC-3 prostate was more than 100 µM throughout.
With `CC(=O)c1cc(C(=O)c2ccc3c(c2)Sc2ccccc2N3)c2c(C)cc(C)cn12`, the GI50 with ACHN renal is 605 nM; in the test with DU-145 prostate, 0.395 µM; with MCF7 breast it was 239 nM; in the test with T-47D breast, 12.8 µM; in the test with MDA-MB-435 it was 0.0468 µM; in the test on PC-3 prostate, 0.362 µM. Further, the TGI in the test with ACHN renal is more than 40.1 µM; in the test with DU-145 prostate it was more than 47.3 µM; in the test with MCF7 breast it was more than 100 µM; with T-47D breast it was more than 100 µM; in the test on MDA-MB-435, 0.237 µM; with PC-3 prostate it was more than 100 µM.
With `N/N=C(\C(=O)Nc1ccc(Cl)cc1Cl)C(c1cnc2ccccc2n1)[N+](=O)[O-]` (stereo unspecified), the TGI in the test on ACHN renal, in the test on MCF7 breast, with HL-60(TB) leukemia, in the test on T-47D breast, with MDA-MB-435 and with PC-3 prostate was more than 100 µM each time.
In the case of `O=C1Nc2c(C(F)(F)F)cccc2[C@@]1(c1ccc(O)cc1)c1ccc(OC(F)(F)F)cc1`, the GI50 was 17.8 nM in the test on ACHN renal; 0.0303 µM in the test with DU-145 prostate; less than 10 nM in the test with MCF7 breast; 5590 nM in the test with HL-60(TB) leukemia; 7.92 µM in the test on MDA-MB-435; less than 0.0141 µM in the test on PC-3 prostate. Moreover, the TGI with ACHN renal amounted to 0.0349 µM; in the test on DU-145 prostate, 0.0866 µM; in the test on MCF7 breast, 0.0269 µM; in the test with HL-60(TB) leukemia, 23.8 µM; with MDA-MB-435, 21.9 µM; in the test with PC-3 prostate, 0.388 µM.
In the case of `O=C1NC(=O)C(=C/C=C/c2ccccc2)C(=O)N1`, the GI50 is 2320 nM with ACHN renal; 2.13 µM with DU-145 prostate; 2970 nM in the test on MCF7 breast; 2910 nM in the test on HL-60(TB) leukemia; 11.6 µM in the test with T-47D breast; 4.59 µM in the test with PC-3 prostate. Also, the TGI in the test with ACHN renal is 5.65 µM; in the test on DU-145 prostate, 4.87 µM; with MCF7 breast, 20.1 µM; with HL-60(TB) leukemia, 8.08 µM; with T-47D breast it was 53 µM; in the test with PC-3 prostate, 23.4 µM.
